The results in this text go back to US8574563B2 (Bristol-Myers Squibb Company, priority 2006, dated 2013).

By EC50 is commonly meant the midpoint of the concentration-response curve.

The test system of one test is HCV 1b-377-neo replicon cells. As to the kind of experiment: HCV replicon assay, HCV 1b-377-neo replicon cells (1b FRET). It is filed as cell-based, Hepatitis C virus genotype 1b. Particulars: HCV 1b-377-neo replicon cells; HCV 1b genotype. A digest of the protocol:
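Compounds were tested in genotype 1b subgenomic replicon cells carrying a neomycin marker, alongside a matched replicon line with an NS5A Y2065H substitution that confers resistance to a reference NS5A inhibitor.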
A general note: In antiviral work, replicon cells carry a viral genome segment that copies itself.
Regarding `COC(=O)N[C@@H](C(=O)N1CCC[C@H]1c1ncc(-c2ccc(-c3ccc(-c4cnc([C@@H]5CCCN5C(=O)Cc5ccccc5OC)[nH]4)cc3)cc2)[nH]1)c1ccccc1` [Example 84-65, methyl ((1R)-2-((2S)-2-(5-(4′-(2-((2S)-1-((2-methoxyphenyl)acetyl)-2-pyrrolidinyl)-1H-imidazol-5-yl)-4-biphenylyl)-1H-imidazol-2-yl)-1-pyrrolidinyl)-2-oxo-1-phenylethyl)carbamate], the “EC50 range against HCV 1b (Table 2, Range)” value is listed as “C-D”.

With `COC(=O)N[C@@H](C(=O)N1CCC[C@H]1c1ncc(-c2ccc(-c3ccc(-c4cnc([C@@H]5CCCN5C(=O)Cc5ccccc5Cl)[nH]4)cc3)cc2)[nH]1)c1ccccc1` [Example 84-66, methyl ((1R)-2-((2S)-2-(5-(4′-(2-((2S)-1-((2-chlorophenyl)acetyl)-2-pyrrolidinyl)-1H-imidazol-5-yl)-4-biphenylyl)-1H-imidazol-2-yl)-1-pyrrolidinyl)-2-oxo-1-phenylethyl)carbamate], the “EC50 range against HCV 1b (Table 2, Range)” value is recorded as “C-D”.

The same test, now with this note: HCV 1b-377-neo replicon cells; HCV 1b genotype; read-out: EC50 range against HCV 1b (Table 2, Range).
On to `COC(=O)N[C@@H](C(=O)N1CCC[C@H]1c1ncc(-c2ccc(-c3ccc(-c4cnc([C@@H]5CCCN5C(=O)C(c5ccc(Cl)cc5)N(C)C)[nH]4)cc3)cc2)[nH]1)c1ccccc1` (stereo partly drawn) [Example 84-58, methyl ((1R)-2-((2S)-2-(5-(4′-(2-((2S)-1-((4-chlorophenyl)(dimethylamino)acetyl)-2-pyrrolidinyl)-1H-imdiazol-5-yl)-4-biphenylyl)-1H-imidazol-2-yl)-1-pyrrolidinyl)-2-oxo-1-phenylethyl)carbamate], for which the EC50 fell in the range of 0.001 to 0.999 nM.

Staying with this test, now noted: Hepatitis C virus, HCV 1b-377-neo replicon cells; HCV 1b genotype; read-out: EC50 range against HCV 1b (Table 2, Range).
Consider `COC(=O)N[C@@H](C(=O)N1CCC[C@H]1c1ncc(-c2ccc(-c3ccc(-c4cnc([C@@H]5CCCN5C(=O)C(c5cccc(C(F)(F)F)c5)N(C)C)[nH]4)cc3)cc2)[nH]1)c1ccccc1` (stereo partly drawn) [Example 84-54, methyl ((1R)-2-((2S)-2-(5-(4′-(2-((2S)-1-((dimethylamino)(3-(trifluoromethyl)phenyl)acetyl)-2-pyrrolidinyl)-1H-imidazol-5-yl)-4-biphenylyl)-1H-imidazol-2-yl)-1-pyrrolidinyl)-2-oxo-1-phenylethyl)carbamate], for which the EC50 was 0.001 to 0.999 nM.

With `COC(=O)N[C@@H](C(=O)N1CCC[C@H]1c1ncc(-c2ccc(-c3ccc(-c4cnc([C@@H]5CCCN5C(=O)C(c5ccccc5C(F)(F)F)N(C)C)[nH]4)cc3)cc2)[nH]1)c1ccccc1` (stereo partly drawn) [Example 84-55, methyl ((1R)-2-((2S)-2-(5-(4′-(2-((2S)-1-((dimethylamino)(2-(trifluoromethyl)phenyl)acetyl)-2-pyrrolidinyl)-1H-imidazol-5-yl)-4-biphenylyl)-1H-imidazol-2-yl)-1-pyrrolidinyl)-2-oxo-1-phenylethyl)carbamate], the EC50 is 0.001 to 0.999 nM.

Take `COC(=O)N[C@@H](C(=O)N1CCC[C@H]1c1ncc(-c2ccc(-c3ccc(-c4cnc([C@@H]5CCCN5C(=O)C(c5ccccc5Cl)N(C)C)[nH]4)cc3)cc2)[nH]1)c1ccccc1` (stereo partly drawn) [Example 84-56, methyl ((1R)-2-((2S)-2-(5-(4′-(2-((2S)-1-((2-chlorophenyl)(dimethylamino)acetyl)-2-pyrrolidinyl)-1H-imidazol-5-yl)-4-biphenylyl)-1H-imidazol-2-yl)-1-pyrrolidinyl)-2-oxo-1-phenylethyl)carbamate]: the EC50 was 0.001 to 0.999 nM.

Consider `COC(=O)N[C@@H](C(=O)N1CCC[C@H]1c1ncc(-c2ccc(-c3ccc(-c4cnc([C@@H]5CCCN5C(=O)C(c5cccc(Cl)c5)N(C)C)[nH]4)cc3)cc2)[nH]1)c1ccccc1` (stereo partly drawn) [Example 84-57, methyl ((1R)-2-((2S)-2-(5-(4′-(2-((2S)-1-((3-chlorophenyl)(dimethylamino)acetyl)-2-pyrrolidinyl)-1H-imidazol-5-yl)-4-biphenylyl)-1H-imidazol-2-yl)-1-pyrrolidinyl)-2-oxo-1-phenylethyl)carbamate], for which the EC50 was 0.001 to 0.999 nM.

For `COC(=O)N[C@@H](C(=O)N1CCC[C@H]1c1ncc(-c2ccc(-c3ccc(-c4cnc([C@@H]5CCCN5C(=O)C(c5ccccc5F)N(C)C)[nH]4)cc3)cc2)[nH]1)c1ccccc1` (stereo partly drawn) [Example 84-59, methyl ((1R)-2-((2S)-2-(5-(4′-(2-((2S)-1-((dimethylamino)(2-fluorophenyl)acetyl)-2-pyrrolidinyl)-1H-imidazol-5-yl)-4-biphenylyl)-1H-imidazol-2-yl)-1-pyrrolidinyl)-2-oxo-1-phenylethyl)carbamate], the EC50 lay within 0.001 to 0.999 nM.

With `COC(=O)N[C@@H](C(=O)N1CCC[C@H]1c1ncc(-c2ccc(-c3ccc(-c4cnc([C@@H]5CCCN5C(=O)C(c5cccc(F)c5)N(C)C)[nH]4)cc3)cc2)[nH]1)c1ccccc1` (stereo partly drawn) [Example 84-60, methyl ((1R)-2-((2S)-2-(5-(4′-(2-((2S)-1-((dimethylamino)(3-fluorophenyl)acetyl)-2-pyrrolidinyl)-1H-imidazol-5-yl)-4-biphenylyl)-1H-imidazol-2-yl)-1-pyrrolidinyl)-2-oxo-1-phenylethyl)carbamate], the EC50 was 0.001 to 0.999 nM.

On to `COC(=O)N[C@@H](C(=O)N1CCC[C@H]1c1ncc(-c2ccc(-c3ccc(-c4cnc([C@@H]5CCCN5C(=O)C(c5ccccn5)N(C)C)[nH]4)cc3)cc2)[nH]1)c1ccccc1` (stereo partly drawn) [Example 84-61, methyl ((1R)-2-((2S)-2-(5-(4′-(2-((2S)-1-((dimethylamino)(2-pyridinyl)acetyl)-2-pyrrolidinyl)-1H-imidazol-5-yl)-4-biphenylyl)-1H-imidazol-2-yl)-1-pyrrolidinyl)-2-oxo-1-phenylethyl)carbamate], for which the EC50 fell in the range of 0.001 to 0.999 nM.

`COC(=O)N[C@@H](C(=O)N1CCC[C@H]1c1nc(-c2ccc(-c3ccc(-c4cnc([C@@H]5CCCN5C(=O)C(c5cccnc5)N(C)C)[nH]4)cc3)cc2)c[nH]1)c1ccccc1` (stereo partly drawn) [Example 84-62, methyl ((1R)-2-((2S)-2-(4-(4′-(2-((2S)-1-((dimethylamino)(3-pyridinyl)acetyl)-2-pyrrolidinyl)-1H-imidazol-5-yl)-4-biphenylyl)-1H-imidazol-2-yl)-1-pyrrolidinyl)-2-oxo-1-phenylethyl)carbamate]: the EC50 fell in the range of 0.001 to 0.999 nM.

Consider `COC(=O)N[C@@H](C(=O)N1CCC[C@H]1c1ncc(-c2ccc(-c3ccc(-c4cnc([C@@H]5CCCN5C(=O)Cc5ccc(OC)cc5)[nH]4)cc3)cc2)[nH]1)c1ccccc1` [Example 84-63, methyl ((1R)-2-((2S)-2-(5-(4′-(2-((2S)-1-((4-methoxyphenyl)acetyl)-2-pyrrolidinyl)-1H-imidazol-5-yl)-4-biphenylyl)-1H-imidazol-2-yl)-1-pyrrolidinyl)-2-oxo-1-phenylethyl)carbamate], for which the EC50 was in the range of 0.001 to 0.999 nM.

Take `COC(=O)N[C@@H](C(=O)N1CCC[C@H]1c1ncc(-c2ccc(-c3ccc(-c4cnc([C@@H]5CCCN5C(=O)Cc5cccc(OC)c5)[nH]4)cc3)cc2)[nH]1)c1ccccc1` [Example 84-64, methyl ((1R)-2-((2S)-2-(5-(4′-(2-((2S)-1-((3-methoxyphenyl)acetyl)-2-pyrrolidinyl)-1H-imidazol-5-yl)-4-biphenylyl)-1H-imidazol-2-yl)-1-pyrrolidinyl)-2-oxo-1-phenylethyl)carbamate]: the EC50 lay in the range of 0.001 to 0.999 nM.

Turning to `COC(=O)N[C@@H](C(=O)N1CCC[C@H]1c1ncc(-c2ccc(-c3ccc(-c4cnc([C@@H]5CCCN5C(=O)Cc5cccc(Cl)c5)[nH]4)cc3)cc2)[nH]1)c1ccccc1` [Example 84-67, methyl ((1R)-2-((2S)-2-(5-(4′-(2-((2S)-1-((3-chlorophenyl)acetyl)-2-pyrrolidinyl)-1H-imidazol-5-yl)-4-biphenylyl)-1H-imidazol-2-yl)-1-pyrrolidinyl)-2-oxo-1-phenylethyl)carbamate], the EC50 was in the range of 0.001 to 0.999 nM.

With `COC(=O)N[C@@H](C(=O)N1CCC[C@H]1c1ncc(-c2ccc(-c3ccc(-c4cnc([C@@H]5CCCN5C(=O)Cc5ccc(Cl)cc5)[nH]4)cc3)cc2)[nH]1)c1ccccc1` [Example 84-68, methyl ((1R)-2-((2S)-2-(5-(4′-(2-((2S)-1-((4-chlorophenyl)acetyl)-2-pyrrolidinyl)-1H-imidazol-5-yl)-4-biphenylyl)-1H-imidazol-2-yl)-1-pyrrolidinyl)-2-oxo-1-phenylethyl)carbamate], the EC50 fell in the range of 1 to 99 nM.

Take `COC(=O)N[C@@H](C(=O)N1CCC[C@H]1c1ncc(-c2ccc(-c3ccc(-c4cnc([C@@H]5CCCN5C(=O)Cc5ccccc5C)[nH]4)cc3)cc2)[nH]1)c1ccccc1` [Example 84-69, methyl ((1R)-2-((2S)-2-(5-(4′-(2-((2S)-1-((2-methylphenyl)acetyl)-2-pyrrolidinyl)-1H-imidazol-5-yl)-4-biphenylyl)-1H-imidazol-2-yl)-1-pyrrolidinyl)-2-oxo-1-phenylethyl)carbamate]: the EC50 was in the range of 0.001 to 0.999 nM.

With `COC(=O)N[C@@H](C(=O)N1CCC[C@H]1c1ncc(-c2ccc(-c3ccc(-c4cnc([C@@H]5CCCN5C(=O)Cc5ccc(C)cc5)[nH]4)cc3)cc2)[nH]1)c1ccccc1` [Example 84-70, methyl ((1R)-2-((2S)-2-(5-(4′-(2-((2S)-1-((4-methylphenyl)acetyl)-2-pyrrolidinyl)-1H-imidazol-5-yl)-4-biphenylyl)-1H-imidazol-2-yl)-1-pyrrolidinyl)-2-oxo-1-phenylethyl)carbamate], the EC50 lay in the range of 1 to 99 nM.

Consider `COC(=O)N[C@@H](C(=O)N1CCC[C@H]1c1ncc(-c2ccc(-c3ccc(-c4cnc([C@@H]5CCCN5C(=O)Cc5cccc(C)c5)[nH]4)cc3)cc2)[nH]1)c1ccccc1` [Example 84-71, methyl ((1R)-2-((2S)-2-(5-(4′-(2-((2S)-1-((3-methylphenyl)acetyl)-2-pyrrolidinyl)-1H-imidazol-5-yl)-4-biphenylyl)-1H-imidazol-2-yl)-1-pyrrolidinyl)-2-oxo-1-phenylethyl)carbamate], for which the EC50 lay within 1 to 99 nM.
